Source: PubChem BioAssay (NCI)
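Briefly, cells in 96-well plates were exposed to five compound concentrations for 48 h, and endpoints were estimated by linear interpolation. GI50 marks 50% less growth. At the TGI there is no net growth.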

Columns and labels:
Test in all cases: NCI-60 cell line screen, 48 h
[1] = system: 786-0 renal
[2] = system: A498 renal
[3] = system: A549 NSCLC
[4] = system: ACHN renal
[5] = system: BT-549 breast
[6] = system: CAKI-1 renal
[7] = system: CCRF-CEM leukemia
[8] = system: COLO 205 colon
[9] = system: DU-145 prostate
[10] = system: HCC-2998 colon
[11] = system: HCT-116 colon
[12] = system: HCT-15 colon
[13] = system: HL-60(TB) leukemia
[14] = system: HOP-62 NSCLC
[15] = system: HOP-92 NSCLC
[16] = system: HS 578T breast
[17] = system: HT29 colon
[18] = system: IGROV1 ovarian
[19] = system: K-562 leukemia
[20] = system: KM12 colon
[21] = system: LOX IMVI melanoma
[22] = system: M14 melanoma
[23] = system: MALME-3M melanoma
[24] = system: MCF7 breast
[25] = system: MDA-MB-231 breast
[26] = system: MDA-MB-435
[27] = system: MOLT-4 leukemia
[28] = system: NCI-H226 lung
[29] = system: NCI-H23 lung
[30] = system: NCI-H460 lung
[31] = system: NCI-H522 lung
[32] = system: NCI/ADR-RES ovarian
[33] = system: OVCAR-3 ovarian
[34] = system: OVCAR-4 ovarian
[35] = system: OVCAR-5 ovarian
[36] = system: OVCAR-8 ovarian
[37] = system: PC-3 prostate
[38] = system: RPMI-8226 leukemia
[39] = system: RXF 393 renal
[40] = system: SF-268 CNS
[41] = system: SF-295 CNS
[42] = system: SF-539 CNS
[43] = system: SK-MEL-2 melanoma
[44] = system: SK-MEL-28 melanoma
[45] = system: SK-MEL-5 melanoma
[46] = system: SK-OV-3 ovarian
[47] = system: SN12C renal
[48] = system: SNB-19 CNS
[49] = system: SNB-75 CNS
[50] = system: SR leukemia
[51] = system: SW-620 colon
[52] = system: T-47D breast
[53] = system: TK-10 renal
[54] = system: U251 CNS
[55] = system: UACC-257 melanoma
[56] = system: UACC-62 melanoma
[57] = system: UO-31 renal

`CCOC(=O)Nc1nc2c(F)c(F)c(F)cc2s1` was tested, and the GI50 [1] was 84.3 µM, the TGI [1] was over 100 µM and the GI50 [2] was 31.8 µM. The TGI [2] was over 100 µM, the GI50 [3] was over 100 µM and the TGI [3] was over 100 µM. For the same compound, the GI50 [4] was over 100 µM, the TGI [4] was over 100 µM and the GI50 [5] was 58.3 µM. It also gave a TGI [5] of over 100 µM, a GI50 [6] of over 100 µM and a TGI [6] of over 100 µM. For the same compound, the GI50 [7] was over 100 µM, the TGI [7] was over 100 µM and the GI50 [8] was over 100 µM. It also gave a TGI [8] of over 100 µM, a GI50 [9] of 75.1 µM and a TGI [9] of over 100 µM. For the same compound, the GI50 [10] was over 100 µM, the TGI [10] was over 100 µM and the GI50 [11] was 58.6 µM. It also gave a TGI [11] of over 100 µM, a GI50 [12] of over 100 µM and a TGI [12] of over 100 µM. For the same compound, the GI50 [13] was over 100 µM, the TGI [13] was over 100 µM and the GI50 [14] was 33.9 µM. For the same compound, the TGI [14] was over 100 µM, the GI50 [15] was 15.4 µM and the TGI [15] was 97.5 µM. The GI50 [16] was 27.4 µM, the TGI [16] was over 100 µM and the GI50 [17] was over 100 µM. For the same compound, the TGI [17] was over 100 µM, the GI50 [18] was over 100 µM and the TGI [18] was over 100 µM. It also gave a GI50 [19] of over 100 µM, a TGI [19] of over 100 µM and a GI50 [20] of over 100 µM. The TGI [20] was over 100 µM, the GI50 [21] was over 100 µM and the TGI [21] was over 100 µM. For the same compound, the GI50 [22] was over 100 µM, the TGI [22] was over 100 µM and the GI50 [23] was over 100 µM. It also gave a TGI [23] of over 100 µM, a GI50 [24] of over 100 µM and a TGI [24] of over 100 µM. For the same compound, the GI50 [25] was 36.2 µM, the TGI [25] was over 100 µM and the GI50 [26] was over 100 µM. The TGI [26] was over 100 µM, the GI50 [27] was over 100 µM and the TGI [27] was over 100 µM. For the same compound, the GI50 [28] was 46 µM, the TGI [28] was over 100 µM and the GI50 [29] was 89 µM. The TGI [29] was over 100 µM, the GI50 [30] was 71.9 µM and the TGI [30] was over 100 µM. It also gave a GI50 [31] of 36.9 µM, a TGI [31] of over 100 µM and a GI50 [32] of over 100 µM. It also gave a TGI [32] of over 100 µM, a GI50 [33] of 75.1 µM and a TGI [33] of over 100 µM. The GI50 [34] was 37.5 µM, the TGI [34] was over 100 µM and the GI50 [35] was over 100 µM. It also gave a TGI [35] of over 100 µM, a GI50 [36] of 48.1 µM and a TGI [36] of over 100 µM. The GI50 [37] was over 100 µM, the TGI [37] was over 100 µM and the GI50 [38] was over 100 µM. The TGI [38] was over 100 µM, the GI50 [39] was 29.6 µM and the TGI [39] was over 100 µM. It also gave a GI50 [40] of 43.8 µM, a TGI [40] of over 100 µM and a GI50 [41] of 38.8 µM. The TGI [41] was over 100 µM, the GI50 [42] was 28.7 µM and the TGI [42] was 98.2 µM. It also gave a GI50 [43] of 53.1 µM, a TGI [43] of over 100 µM and a GI50 [44] of over 100 µM. The TGI [44] was over 100 µM, the GI50 [45] was over 100 µM and the TGI [45] was over 100 µM. The GI50 [46] was 45.2 µM, the TGI [46] was over 100 µM and the GI50 [47] was over 100 µM. The TGI [47] was over 100 µM, the GI50 [48] was over 100 µM and the TGI [48] was over 100 µM. For the same compound, the GI50 [49] was 23.4 µM, the TGI [49] was 94.4 µM and the GI50 [50] was over 100 µM. It also gave a TGI [50] of over 100 µM, a GI50 [51] of over 100 µM and a TGI [51] of over 100 µM. It also gave a GI50 [52] of 61.8 µM, a TGI [52] of over 100 µM and a GI50 [53] of over 100 µM. The TGI [53] was over 100 µM, the GI50 [54] was 36.7 µM and the TGI [54] was over 100 µM. It also gave a GI50 [55] of over 100 µM, a TGI [55] of over 100 µM and a GI50 [56] of 19.7 µM. For the same compound, the TGI [56] was over 100 µM, the GI50 [57] was over 100 µM and the TGI [57] was over 100 µM.
